≈ marks a conversion by molar mass, not a printed value.
Key:
[1] = system: Candida albicans ATCC 10231; test: Broth microdilution MIC/MFC; format: cell-based; details: for MFC: ATCC10231, read-out: MFC; for MIC: ATCC10231, read-out: MIC
Method in brief: (§1)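 Two-fold dilutions in RPMI 1640 with MOPS (fungi) or Mueller-Hinton broth (bacteria), final 1000–0.488 µg/mL, inoculum 0.5 McFarland in 0.85% NaCl. MIC read spectrophotometrically; MBC/MFC as lowest concentration with no visible growth after well contents were spotted onto agar.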

[2] = system: Candida albicans ATCC 2091; test: Broth microdilution MIC/MFC; format: cell-based; details: for MFC: ATCC2091, read-out: MFC; for MIC: ATCC2091, read-out: MIC
Method in brief: as §1

[3] = system: Candida glabrata ATCC 90030; test: Broth microdilution MIC/MFC; format: cell-based; details: Nakaseomyces glabratus; for MFC: ATCC90030, read-out: MFC; for MIC: ATCC90030, read-out: MIC
Method in brief: as §1

[4] = system: Candida krusei ATCC 14243; test: Broth microdilution MIC/MFC; format: cell-based; details: Pichia kudriavzevii; for MFC: ATCC14243, read-out: MFC; for MIC: ATCC14243, read-out: MIC
Method in brief: as §1

[5] = system: Candida parapsilosis ATCC 22019; test: Broth microdilution MIC/MFC; format: cell-based; details: Lodderomyces parapsilosis; for MFC: ATCC22019, read-out: MFC; for MIC: ATCC22019, read-out: MIC
Method in brief: as §1

[6] = system: Staphylococcus aureus ATCC 43300; test: Broth microdilution MIC/MBC; details: ATCC43300 / MRSA
[7] = system: Bacillus cereus ATCC 10876; test: Broth microdilution MIC/MBC; details: Bacillus cereus, ATCC10876
[8] = system: Bordetella bronchiseptica ATCC 4617; test: Broth microdilution MIC/MBC; details: ATCC4617
[9] = system: Klebsiella pneumoniae ATCC 13883; test: Broth microdilution MIC/MBC; details: ATCC13883
[10] = system: Escherichia coli ATCC 25922; test: Broth microdilution MIC/MBC; details: ATCC25922
[11] = system: Pseudomonas aeruginosa ATCC 9027; test: Broth microdilution MIC/MBC; details: ATCC9027

| Structure (SMILES) | MFC [1] [µg/mL] | MIC [1] [µg/mL] | MFC [2] [µg/mL] | MIC [2] [µg/mL] | MFC [3] [µg/mL] | MIC [3] [µg/mL] | MFC [4] [µg/mL] | MIC [4] [µg/mL] | MFC [5] [µg/mL] | MIC [5] [µg/mL] | MBC [6] [µg/mL] | MIC [6] [µg/mL] | MBC [7] [µg/mL] | MIC [7] [µg/mL] | MBC [8] [µg/mL] | MBC/MIC [8] | MIC [8] [µg/mL] | MIC [9] [µg/mL] | MIC [10] [µg/mL] | MIC [11] [µg/mL] | also measured |
| --- | --- | --- | --- | --- | --- | --- | --- | --- | --- | --- | --- | --- | --- | --- | --- | --- | --- | --- | --- | --- | --- |
| O=C(N/N=C/c1cc(I)cc(I)c1O)c1ccccc1I [Compound 14, N-[(3,5-diiodo-2-hydroxyphenyl)methylidene]-2-iodobenzohydrazide] | 1000 (≈ 1620 µM) | 500 (≈ 809 µM) | > 1000 | 500 (≈ 809 µM) | 1000 (≈ 1620 µM) | 250 (≈ 405 µM) | > 1000 | 500 (≈ 809 µM) | > 1000 | 1000 (≈ 1620 µM) | 1000 (≈ 1620 µM) | 250 (≈ 405 µM) | 250 (≈ 405 µM) | 125 (≈ 202 µM) | – | – | – | – | – | – | – |
| O=C(N/N=C/c1cc(Cl)cc(I)c1O)c1cccc(I)c1 [Compound 20, N-[(5-chloro-2-hydroxy-3-iodophenyl)methylidene]-3-iodobenzohydrazide] | > 1000 | 250 (≈ 475 µM) | > 1000 | 500 (≈ 950 µM) | > 1000 | 125 (≈ 237 µM) | > 1000 | 500 (≈ 950 µM) | > 1000 | 125 (≈ 237 µM) | 7.81 (≈ 14.8 µM) | 3.91 (≈ 7.43 µM) | 31.2 (≈ 59.4 µM) | 7.81 (≈ 14.8 µM) | > 1000 | > 2 | 500 (≈ 950 µM) | 500 (≈ 950 µM) | 1000 (≈ 1900 µM) | 500 (≈ 950 µM) | MBC [9]: > 1000 µg/mL; MBC/MIC [9]: > 2; MBC [10]: > 1000 µg/mL; MBC/MIC [10]: > 1; MBC [11]: > 1000 µg/mL; MBC/MIC [11]: > 2 |
| O=C(N/N=C/c1cc(Br)cc(Br)c1O)c1cccc(I)c1 [Compound 21, N-[(3,5-dibromo-2-hydroxyphenyl)methylidene]-3-iodobenzohydrazide] | > 1000 | 250 (≈ 477 µM) | > 1000 | 500 (≈ 954 µM) | > 1000 | 125 (≈ 239 µM) | > 1000 | 500 (≈ 954 µM) | > 1000 | 250 (≈ 477 µM) | 62.5 (≈ 119 µM) | 15.6 (≈ 29.8 µM) | 62.5 (≈ 119 µM) | 15.6 (≈ 29.8 µM) | – | – | > 1000 | > 1000 | > 1000 | > 1000 | – |
| O=C(N/N=C/c1cc(Cl)cc(I)c1O)c1ccc(I)cc1 [Compound 27, N-[(5-chloro-2-hydroxy-3-iodophenyl)methylidene]-4-iodobenzohydrazide] | 31.2 (≈ 59.4 µM) | 15.6 (≈ 29.7 µM) | 62.5 (≈ 119 µM) | 62.5 (≈ 119 µM) | 62.5 (≈ 119 µM) | 31.2 (≈ 59.4 µM) | 62.5 (≈ 119 µM) | 62.5 (≈ 119 µM) | 62.5 (≈ 119 µM) | 31.2 (≈ 59.4 µM) | 250 (≈ 475 µM) | 62.5 (≈ 119 µM) | 250 (≈ 475 µM) | 62.5 (≈ 119 µM) | 1000 (≈ 1900 µM) | 2 | 500 (≈ 950 µM) | 500 (≈ 950 µM) | 500 (≈ 950 µM) | 1000 (≈ 1900 µM) | MBC [9]: > 1000 µg/mL; MBC/MIC [9]: > 2; MBC [10]: 500 µg/mL (≈ 950 µM); MBC/MIC [10]: 1; MBC [11]: > 1000 µg/mL; MBC/MIC [11]: > 1 |

Reference: publication PMC11356900, “Synthesis, Structural Properties and Biological Activities of Novel Hydrazones of 2-, 3-, 4-Iodobenzoic Acid” (Molecules, 2024)
